How the values were obtained:
Format in all cases: cell-based
[1] = tested on: Pseudomonas aeruginosa ATCC 27853; assay: MIC determination by broth dilution method (CLSI M07-A9); conditions: P. aeruginosa ATCC 27853
Method: (§1) Minimum Inhibitory Concentration (MIC) is the lowest concentration of an antimicrobial agent that prevents visible growth of a microorganism in an agar or broth dilution susceptibility test. MIC of thymoquinone was determined by the broth dilution method against 33 MDR Acinetobacter baumannii strains and standard sensitive culture collection strain of Acinetobacter baumannii and Pseudomonas aeruginosa. The MIC of gentamicin was deter lined by broth dilution method against six MDR Acinetobacter baumannii strains and standard sensitive culture collection strains of Acinetobacter baumannii and Pseudomonas aeruginosa. MIC testing was performed according to the recommendations and guidelines of Clinical Laboratory Standard Institutes (CLSI M07-A9; 2012). Clinical and Laboratory Standards Institute (CLSI), “Methods for Dilution Antimicrobial Susceptibility Tests for Bacteria That Grow Aerobically; Approved Standard,” Document M07-A9, Clinical and Laboratory Standards Institute (CLSI), Wayne, Pa., USA, 2012.
(§2) Twenty-one grams of Mueller-Hinton Broth (MHB) was suspended in 1 Liter distilled water and then boiled to dissolve the powder completely. The medium was sterilized by autoclaving at 121° C. for 15 min. After autoclaving, the medium was cooled to room temperature before use or stored in the fridge until used.
(§3) Thymoquinone was weighed and dissolved in Dimethyl sulfoxide (DMSO) to produce a thymoquinone stock solution with a concentration of 5,120 μg/ml. Gentamicin sulfate was weighed and dissolved in water to produce a gentamicin sulfate stock solution with a concentration of 5,120 μg/ml, equivalent to gentamicin base.
(§4) Dilutions of thymoquinone and gentamicin sulfate stock solutions were prepared volumetrically in the MHB as follows:
(§5) One mL of original stock solution (5,120 μg/ml) was added to 9 ml sterile MHB to give the working first dilution (512 μg/mL). 12 sterile 7 mL PJ tubes were arranged in a rack in a row. Each tube contained one mL sterile MHB. Ten tubes were labeled as 128 μg/mL, 64 μg/mL, 32 μg/mL, 16 μg/mL, 8 μg/mL, 4 μg/mL, 2 μg/mL, 1 μg/mL, 0.5 μg/mL and 0.25 μg/mL. The eleventh and twelfth tubes were labeled as positive and negative control, respectively.
(§6) The working dilution (512 μg/mL) was serially diluted to give two-fold dilutions. One mL of the working dilution (512 μg/mL) was dispensed in the first tube (labeled as 128 μg/mL) to give a concentration of 256 μg drug/mL MHB. One mL of the first tube was added to the second tube (labeled as 64 μg/mL) to give a concentration of 128 μg drug/mL MHB. One mL of the second tube was transferred to the third tube (labeled as 32 μg/mL) to give a concentration of 64 μg drug/mL MHB. One mL of the third tube was added to the fourth tube (labeled as 16 μg/mL) to give a concentration of 32 μg drug/mL MHB. One mL of the fourth tube was dispensed in the fifth tube (labeled as 8 μg/mL) to give a concentration of 16 μg drug/mL MHB. One mL of the fifth tube was dispensed in the sixth tube (labeled as 4 μg/mL) to give a concentration of 8 μg drug/mL MHB. One mL of the sixth tube was added to the seventh tube (labeled as 2 μg/mL) to give a concentration of 4 μg drug/mL MHB. One mL of the seventh tube was added to the eighth tube (labeled as 1 μg/mL) to give a concentration of 2 μg drug/mL MHB. One mL of the eighth tube was transferred to the ninth tube (labeled as 0.5 μg/mL) to give a concentration of 1 μg drug/mL MHB. One mL of the ninth tube was transferred to the tenth tube (labeled as 0.25 μg/mL) to give a concentration of 0.5 μg drug/mL MHB. The contents were mixed thoroughly by pipetting up and down three times. One mL of the content of the tenth tube was discarded.
(§7) The inoculum suspensions (at 1-2×10^8 CFU/mL) were diluted 1:100 in MHB to obtain 1×10^6 CFU/mL. One mL of the diluted inoculum suspension (1×10^6 CFU/mL) was transferred to each tube except tube 12.
(§8) All inoculated tubes were incubated for 16-20 hours at 37° C. aerobically. […]

[2] = tested on: Acinetobacter baumannii isolates and Acinetobacter baumannii ATCC BAA 747; assay: as above
Method: as §1, §2, §3, §4, §5, §6, §7, §8

[3] = tested on: Acinetobacter baumannii isolates; assay: Antimicrobial susceptibility test, disc diffusion method (CLSI M100-S24); set-up: key to Inhibition zone: “NZ” indicated that no zone of inhibition was observed; conditions: for susceptibility category: ATM disc; for Inhibition zone: disc diffusion
Procedure, shortened: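 Disc diffusion per CLSI M100-S24 on 33 MDR clinical A. baumannii isolates from burn wards; 0.5 McFarland inoculum swabbed onto Mueller-Hinton agar, incubated aerobically 35-37° C, 18-20 h. Zone diameters measured to nearest mm and categorized S/I/R by CLSI breakpoints.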

## Gentamicin sulfate
[1]
  MIC: ≤2 µg/mL
[2]; A. baumannii ATCC BAA 747 (standard sensitive strain)
  MIC: 1 µg/mL
[2]; isolate AB7
  MIC: 32 µg/mL
[2]; isolate AB8
  MIC: 64 µg/mL
[2]; isolate AB10
  MIC: 32 µg/mL
[2]; isolate AB11
  MIC: 32 µg/mL
[2]; isolate AB12
  MIC: 32 µg/mL
[2]; isolate AB13
  MIC: 32 µg/mL

## C[C@H]1[C@H](NC(=O)/C(=N\OC(C)(C)C(=O)O)c2csc(N)n2)C(=O)N1S(=O)(=O)O [ATM, Aztreonam]
[3]; isolate AB1
  susceptibility category: R (Resistant ≤15)
  Inhibition zone: NZ
[3]; isolate AB2
  susceptibility category: R (Resistant ≤15)
  Inhibition zone: NZ
[3]; isolate AB3
  susceptibility category: R (Resistant ≤15)
  Inhibition zone: NZ
[3]; isolate AB4
  susceptibility category: R (Resistant ≤15)
  Inhibition zone: NZ
[3]; isolate AB5
  susceptibility category: R (Resistant ≤15)
  Inhibition zone: NZ
[3]; isolate AB6
  susceptibility category: S (Sensitive ≥22)
  Inhibition zone: 20 mm
[3]; isolate AB7
  susceptibility category: R (Resistant ≤15)
  Inhibition zone: NZ
[3]; isolate AB8
  susceptibility category: R (Resistant ≤15)
  Inhibition zone: NZ
[3]; isolate AB9
  susceptibility category: R (Resistant ≤15)
  Inhibition zone: NZ
[3]; isolate AB10
  susceptibility category: R (Resistant ≤15)
  Inhibition zone: 13 mm
[3]; isolate AB11
  susceptibility category: R (Resistant ≤15)
  Inhibition zone: NZ
[3]; isolate AB12
  susceptibility category: R (Resistant ≤15)
  Inhibition zone: NZ
[3]; isolate AB13
  susceptibility category: R (Resistant ≤15)
  Inhibition zone: NZ
[3]; isolate AB14
  susceptibility category: R (Resistant ≤15)
  Inhibition zone: NZ
[3]; isolate AB15
  susceptibility category: R (Resistant ≤15)
  Inhibition zone: 11 mm
[3]; isolate AB16
  susceptibility category: S (Sensitive ≥22)
  Inhibition zone: 33 mm
[3]; isolate AB17
  susceptibility category: R (Resistant ≤15)
  Inhibition zone: 15 mm
[3]; isolate AB18
  susceptibility category: R (Resistant ≤15)
  Inhibition zone: 10 mm
[3]; isolate AB19
  susceptibility category: R (Resistant ≤15)
  Inhibition zone: 8 mm
[3]; isolate AB20
  susceptibility category: R (Resistant ≤15)
  Inhibition zone: NZ
[3]; isolate AB21
  susceptibility category: R (Resistant ≤15)
  Inhibition zone: 7 mm
[3]; isolate AB22
  susceptibility category: R (Resistant ≤15)
  Inhibition zone: NZ
[3]; isolate AB23
  susceptibility category: R (Resistant ≤15)
  Inhibition zone: NZ
[3]; isolate AB24
  susceptibility category: R (Resistant ≤15)
  Inhibition zone: NZ
[3]; isolate AB25
  susceptibility category: R (Resistant ≤15)
  Inhibition zone: 13 mm
[3]; isolate AB26
  susceptibility category: R (Resistant ≤15)
  Inhibition zone: 12 mm
[3]; isolate AB27
  susceptibility category: R (Resistant ≤15)
  Inhibition zone: NZ
[3]; isolate AB28
  susceptibility category: R (Resistant ≤15)
  Inhibition zone: NZ
[3]; isolate AB29
  susceptibility category: R (Resistant ≤15)
  Inhibition zone: NZ
[3]; isolate AB30
  susceptibility category: R (Resistant ≤15)
  Inhibition zone: 9 mm
[3]; isolate AB31
  susceptibility category: R (Resistant ≤15)
  Inhibition zone: NZ
[3]; isolate AB32
  susceptibility category: R (Resistant ≤15)
  Inhibition zone: 8 mm
[3]; isolate AB33
  susceptibility category: R (Resistant ≤15)
  Inhibition zone: 9 mm

## O=C(N[C@H](CO)[C@H](O)c1ccc([N+](=O)[O-])cc1)C(Cl)Cl [CHL, Chloramphenicol]
[3]; isolate AB1
  Inhibition zone: NZ
[3]; isolate AB2
  Inhibition zone: 24 mm
[3]; isolate AB3
  Inhibition zone: 26 mm
[3]; isolate AB4
  Inhibition zone: 23 mm
[3]; isolate AB5
  Inhibition zone: 8 mm
[3]; isolate AB6
  Inhibition zone: NZ
[3]; isolate AB7
  Inhibition zone: NZ
[3]; isolate AB8
  Inhibition zone: 7 mm
[3]; isolate AB9
  Inhibition zone: 24 mm
[3]; isolate AB10
  Inhibition zone: NZ
[3]; isolate AB11
  Inhibition zone: NZ
[3]; isolate AB12
  Inhibition zone: NZ
[3]; isolate AB13
  Inhibition zone: NZ
[3]; isolate AB14
  Inhibition zone: NZ
[3]; isolate AB15
  Inhibition zone: 10 mm
[3]; isolate AB16
  Inhibition zone: 30 mm
[3]; isolate AB17
  Inhibition zone: 13 mm
[3]; isolate AB18
  Inhibition zone: 8 mm
[3]; isolate AB19
  Inhibition zone: 8 mm
[3]; isolate AB20
  Inhibition zone: NZ
[3]; isolate AB21
  Inhibition zone: NZ
[3]; isolate AB22
  Inhibition zone: NZ
[3]; isolate AB23
  Inhibition zone: NZ
[3]; isolate AB24
  Inhibition zone: 8 mm
[3]; isolate AB25
  Inhibition zone: NZ
[3]; isolate AB26
  Inhibition zone: 25 mm
[3]; isolate AB27
  Inhibition zone: NZ
[3]; isolate AB28
  Inhibition zone: 14 mm
[3]; isolate AB29
  Inhibition zone: 12 mm
[3]; isolate AB30
  Inhibition zone: 11 mm
[3]; isolate AB31
  Inhibition zone: 8 mm
[3]; isolate AB32
  Inhibition zone: 9 mm
[3]; isolate AB33
  Inhibition zone: 18 mm

## CCN1CCN(C(=O)N[C@@H](C(=O)N[C@@H]2C(=O)N3[C@@H]2SC(C)(C)[C@@H]3C(=O)O)c2ccccc2)C(=O)C1=O [PIP, Piperacillin]
[3]; isolate AB1
  Inhibition zone: 21 mm
[3]; isolate AB2
  Inhibition zone: 20 mm
[3]; isolate AB3
  Inhibition zone: 32 mm
[3]; isolate AB4
  Inhibition zone: 21 mm
[3]; isolate AB5
  Inhibition zone: NZ
[3]; isolate AB6
  Inhibition zone: 18 mm
[3]; isolate AB7
  Inhibition zone: NZ
[3]; isolate AB8
  Inhibition zone: NZ
[3]; isolate AB9
  Inhibition zone: 24 mm
[3]; isolate AB10
  Inhibition zone: NZ
[3]; isolate AB11
  Inhibition zone: NZ
[3]; isolate AB12
  Inhibition zone: NZ
[3]; isolate AB13
  Inhibition zone: NZ
[3]; isolate AB14
  Inhibition zone: NZ
[3]; isolate AB15
  Inhibition zone: NZ
[3]; isolate AB16
  Inhibition zone: 16 mm
[3]; isolate AB17
  Inhibition zone: 15 mm
[3]; isolate AB18
  Inhibition zone: 8 mm
[3]; isolate AB19
  Inhibition zone: NZ
[3]; isolate AB20
  Inhibition zone: NZ
[3]; isolate AB21
  Inhibition zone: NZ
[3]; isolate AB22
  Inhibition zone: NZ
[3]; isolate AB23
  Inhibition zone: NZ
[3]; isolate AB24
  Inhibition zone: NZ
[3]; isolate AB25
  Inhibition zone: 10 mm
[3]; isolate AB26
  Inhibition zone: NZ
[3]; isolate AB27
  Inhibition zone: 8 mm
[3]; isolate AB28
  Inhibition zone: 7 mm
[3]; isolate AB29
  Inhibition zone: NZ
[3]; isolate AB30
  Inhibition zone: 8 mm
[3]; isolate AB31
  Inhibition zone: 8 mm
[3]; isolate AB32
  Inhibition zone: 8 mm
[3]; isolate AB33
  Inhibition zone: 22 mm

From patent publication US11617726B2, “Method for preventing, treating, or ameliorating a microbial infection” (priority 2018, dated 2023)
